In the supplement of paper PMC12076712:
Each block holds one compound with its values, some of them ahead of it.

Legend:
Assay in all cases: pIC50, kinobeads binding competition
TNK1 = molecular target: T1, TNK1 (UniProt Q13470); details: cell material: Lysate mix
T1 sequence (whole entry): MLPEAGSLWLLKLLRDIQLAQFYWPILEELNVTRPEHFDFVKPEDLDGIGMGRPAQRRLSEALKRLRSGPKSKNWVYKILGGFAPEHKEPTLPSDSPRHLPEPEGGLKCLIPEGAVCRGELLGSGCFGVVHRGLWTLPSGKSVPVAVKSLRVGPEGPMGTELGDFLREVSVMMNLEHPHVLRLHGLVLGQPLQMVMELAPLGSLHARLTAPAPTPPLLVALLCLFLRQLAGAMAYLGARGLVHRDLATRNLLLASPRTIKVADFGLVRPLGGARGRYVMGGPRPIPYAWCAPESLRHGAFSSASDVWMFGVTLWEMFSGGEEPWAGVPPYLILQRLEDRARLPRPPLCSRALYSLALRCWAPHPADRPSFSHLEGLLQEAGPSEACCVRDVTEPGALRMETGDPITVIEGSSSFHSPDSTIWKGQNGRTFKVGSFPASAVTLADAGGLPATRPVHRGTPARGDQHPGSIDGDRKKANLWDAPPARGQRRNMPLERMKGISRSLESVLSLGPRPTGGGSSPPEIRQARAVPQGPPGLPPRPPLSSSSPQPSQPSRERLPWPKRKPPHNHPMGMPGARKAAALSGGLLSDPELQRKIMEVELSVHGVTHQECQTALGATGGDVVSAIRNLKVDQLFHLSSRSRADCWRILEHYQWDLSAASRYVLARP
Method in brief: (§1)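 pIC50 was obtained by fitting fold changes against vehicle to logistic dose-response curves with the R drc package, using biological duplicates. Kinobeads-bound proteins were digested and measured by TMT10 LC-MS/MS. Before this, either living Jurkat cells received nine compound concentrations (top 30 μM, 1:4 steps) for 60 min at 37 °C prior to lysis, or Jurkat lysate or a 1:1:1:1 HEK293/K-562/HepG2/placenta lysate mix received nine concentrations (top 30 μM, 1:5 steps) for 60 min at 4 °C.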

MAP4K4 = MAP4K4 (UniProt O95819)
MAP4K4, sequence (O95819 whole entry, looked up): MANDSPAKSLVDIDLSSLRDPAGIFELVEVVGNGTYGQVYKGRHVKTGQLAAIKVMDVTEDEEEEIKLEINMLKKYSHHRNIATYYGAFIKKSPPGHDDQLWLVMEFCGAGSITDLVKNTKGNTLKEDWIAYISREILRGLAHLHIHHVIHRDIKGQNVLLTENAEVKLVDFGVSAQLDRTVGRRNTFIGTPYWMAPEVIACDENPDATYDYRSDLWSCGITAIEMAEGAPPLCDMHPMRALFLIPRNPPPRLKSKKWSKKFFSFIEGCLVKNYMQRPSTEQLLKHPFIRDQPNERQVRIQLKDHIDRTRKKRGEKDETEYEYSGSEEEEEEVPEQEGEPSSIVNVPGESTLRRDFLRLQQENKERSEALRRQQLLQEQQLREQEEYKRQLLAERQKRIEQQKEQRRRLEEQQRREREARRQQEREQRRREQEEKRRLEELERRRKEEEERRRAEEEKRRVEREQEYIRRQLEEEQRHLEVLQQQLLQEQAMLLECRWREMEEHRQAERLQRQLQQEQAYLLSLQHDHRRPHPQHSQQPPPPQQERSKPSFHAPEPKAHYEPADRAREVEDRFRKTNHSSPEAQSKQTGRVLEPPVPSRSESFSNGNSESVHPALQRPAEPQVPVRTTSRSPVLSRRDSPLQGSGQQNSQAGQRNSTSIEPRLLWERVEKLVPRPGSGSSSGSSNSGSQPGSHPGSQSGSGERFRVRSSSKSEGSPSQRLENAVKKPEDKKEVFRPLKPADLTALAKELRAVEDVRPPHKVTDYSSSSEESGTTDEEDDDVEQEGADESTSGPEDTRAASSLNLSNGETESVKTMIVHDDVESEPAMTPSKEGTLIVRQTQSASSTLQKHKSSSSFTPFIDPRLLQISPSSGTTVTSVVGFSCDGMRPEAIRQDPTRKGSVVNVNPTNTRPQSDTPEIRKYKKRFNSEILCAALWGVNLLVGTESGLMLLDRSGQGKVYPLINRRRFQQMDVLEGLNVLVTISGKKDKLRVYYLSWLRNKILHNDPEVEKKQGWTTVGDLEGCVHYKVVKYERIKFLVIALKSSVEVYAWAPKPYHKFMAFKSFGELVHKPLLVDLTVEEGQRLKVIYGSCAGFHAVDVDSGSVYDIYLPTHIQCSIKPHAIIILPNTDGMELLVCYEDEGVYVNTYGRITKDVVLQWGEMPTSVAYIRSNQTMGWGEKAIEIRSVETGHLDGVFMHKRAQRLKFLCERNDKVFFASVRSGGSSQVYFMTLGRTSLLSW
Method in brief: as §1

CDK8 = CDK8 (UniProt P49336)
CDK8, sequence (P49336 whole entry): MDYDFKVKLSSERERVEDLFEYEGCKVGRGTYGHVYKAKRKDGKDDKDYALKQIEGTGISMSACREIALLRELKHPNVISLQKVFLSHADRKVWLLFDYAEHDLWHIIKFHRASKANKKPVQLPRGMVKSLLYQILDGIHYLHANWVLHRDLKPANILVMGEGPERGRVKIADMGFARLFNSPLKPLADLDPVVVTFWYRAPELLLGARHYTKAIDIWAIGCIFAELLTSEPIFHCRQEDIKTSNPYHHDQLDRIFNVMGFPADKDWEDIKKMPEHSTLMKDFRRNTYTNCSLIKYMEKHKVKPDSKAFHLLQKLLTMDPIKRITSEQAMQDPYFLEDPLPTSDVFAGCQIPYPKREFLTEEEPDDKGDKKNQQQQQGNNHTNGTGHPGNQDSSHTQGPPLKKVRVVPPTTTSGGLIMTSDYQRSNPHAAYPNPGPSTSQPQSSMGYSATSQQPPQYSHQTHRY
Method in brief: as §1

TESK1 = TESK1 (UniProt Q15569)
TESK1, sequence (Q15569 whole entry, looked up): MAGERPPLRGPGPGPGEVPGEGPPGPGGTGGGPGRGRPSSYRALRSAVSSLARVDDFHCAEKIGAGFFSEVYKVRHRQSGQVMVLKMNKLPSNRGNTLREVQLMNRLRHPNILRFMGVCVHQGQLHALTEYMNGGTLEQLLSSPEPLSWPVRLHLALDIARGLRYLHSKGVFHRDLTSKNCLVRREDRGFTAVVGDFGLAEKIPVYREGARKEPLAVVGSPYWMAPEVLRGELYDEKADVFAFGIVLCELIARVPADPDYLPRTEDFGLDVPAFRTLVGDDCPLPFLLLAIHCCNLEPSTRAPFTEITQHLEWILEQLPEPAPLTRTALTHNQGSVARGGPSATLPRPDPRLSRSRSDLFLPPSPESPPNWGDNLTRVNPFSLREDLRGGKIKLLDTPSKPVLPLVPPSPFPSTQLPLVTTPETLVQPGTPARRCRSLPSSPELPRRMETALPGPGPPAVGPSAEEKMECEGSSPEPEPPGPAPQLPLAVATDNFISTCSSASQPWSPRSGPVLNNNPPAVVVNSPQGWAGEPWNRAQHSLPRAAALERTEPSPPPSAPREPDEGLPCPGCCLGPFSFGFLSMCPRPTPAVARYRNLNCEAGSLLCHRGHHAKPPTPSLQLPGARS
Method in brief: as §1

BRAF = BRAF (UniProt P15056)
Method in brief: as §1

CAMK2B = CAMK2B (UniProt Q13554); details: cell material: Lysate mix
Method in brief: as §1

UniProt P09619 = details: cell material: Lysate mix
UniProt P09619, sequence (P09619 whole entry): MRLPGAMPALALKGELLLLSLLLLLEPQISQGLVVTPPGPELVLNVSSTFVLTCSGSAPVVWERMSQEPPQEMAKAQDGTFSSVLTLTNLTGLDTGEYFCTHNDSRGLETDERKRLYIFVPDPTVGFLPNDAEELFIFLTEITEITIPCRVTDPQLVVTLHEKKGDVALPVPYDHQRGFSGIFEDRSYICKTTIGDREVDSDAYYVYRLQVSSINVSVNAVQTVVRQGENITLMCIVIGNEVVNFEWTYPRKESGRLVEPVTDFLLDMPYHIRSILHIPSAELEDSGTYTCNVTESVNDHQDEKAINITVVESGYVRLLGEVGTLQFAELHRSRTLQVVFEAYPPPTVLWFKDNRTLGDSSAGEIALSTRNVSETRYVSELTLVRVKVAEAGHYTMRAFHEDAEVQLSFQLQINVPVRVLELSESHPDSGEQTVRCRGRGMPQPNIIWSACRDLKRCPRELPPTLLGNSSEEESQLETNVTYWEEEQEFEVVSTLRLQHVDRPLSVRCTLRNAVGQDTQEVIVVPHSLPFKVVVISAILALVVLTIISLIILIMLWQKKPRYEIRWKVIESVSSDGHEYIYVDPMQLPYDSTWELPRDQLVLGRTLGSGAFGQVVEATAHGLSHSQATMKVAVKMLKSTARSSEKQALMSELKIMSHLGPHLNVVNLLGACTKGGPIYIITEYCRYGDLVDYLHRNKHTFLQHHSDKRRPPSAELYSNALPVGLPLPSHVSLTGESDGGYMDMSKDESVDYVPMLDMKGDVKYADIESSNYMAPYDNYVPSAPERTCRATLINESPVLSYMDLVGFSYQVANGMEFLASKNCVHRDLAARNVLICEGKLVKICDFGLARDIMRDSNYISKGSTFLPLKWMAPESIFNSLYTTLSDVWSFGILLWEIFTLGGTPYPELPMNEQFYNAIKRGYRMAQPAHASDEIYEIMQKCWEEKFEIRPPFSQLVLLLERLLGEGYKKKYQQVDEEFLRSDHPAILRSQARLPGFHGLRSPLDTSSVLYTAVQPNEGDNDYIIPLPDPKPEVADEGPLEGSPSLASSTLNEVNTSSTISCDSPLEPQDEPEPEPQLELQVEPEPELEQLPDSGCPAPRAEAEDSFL
Method in brief: as §1

UniProt Q5TCX8 = molecular target: UniProt Q5TCX8
Method in brief: as §1

DAPK3 = DAPK3 (UniProt O43293); details: cell material: Lysate mix
DAPK3, sequence (O43293 whole entry, looked up): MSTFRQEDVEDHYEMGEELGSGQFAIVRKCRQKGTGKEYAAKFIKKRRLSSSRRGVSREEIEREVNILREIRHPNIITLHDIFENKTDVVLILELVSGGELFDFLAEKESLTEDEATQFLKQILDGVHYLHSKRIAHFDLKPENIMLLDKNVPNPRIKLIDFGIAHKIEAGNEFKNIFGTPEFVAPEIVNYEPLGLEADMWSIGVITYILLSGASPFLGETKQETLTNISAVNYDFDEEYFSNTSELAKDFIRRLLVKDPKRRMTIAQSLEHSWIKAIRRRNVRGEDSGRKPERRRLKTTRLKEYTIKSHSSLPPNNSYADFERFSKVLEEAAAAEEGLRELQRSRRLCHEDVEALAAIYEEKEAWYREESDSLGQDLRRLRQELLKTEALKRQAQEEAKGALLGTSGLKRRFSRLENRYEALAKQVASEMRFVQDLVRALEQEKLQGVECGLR
Method in brief: as §1

NEK6 = NEK6 (UniProt Q9HC98); details: cell material: Lysate mix
Method in brief: as §1

RIPK2 = RIPK2 (UniProt O43353); details: cell material: Lysate mix
RIPK2, sequence (O43353 whole entry): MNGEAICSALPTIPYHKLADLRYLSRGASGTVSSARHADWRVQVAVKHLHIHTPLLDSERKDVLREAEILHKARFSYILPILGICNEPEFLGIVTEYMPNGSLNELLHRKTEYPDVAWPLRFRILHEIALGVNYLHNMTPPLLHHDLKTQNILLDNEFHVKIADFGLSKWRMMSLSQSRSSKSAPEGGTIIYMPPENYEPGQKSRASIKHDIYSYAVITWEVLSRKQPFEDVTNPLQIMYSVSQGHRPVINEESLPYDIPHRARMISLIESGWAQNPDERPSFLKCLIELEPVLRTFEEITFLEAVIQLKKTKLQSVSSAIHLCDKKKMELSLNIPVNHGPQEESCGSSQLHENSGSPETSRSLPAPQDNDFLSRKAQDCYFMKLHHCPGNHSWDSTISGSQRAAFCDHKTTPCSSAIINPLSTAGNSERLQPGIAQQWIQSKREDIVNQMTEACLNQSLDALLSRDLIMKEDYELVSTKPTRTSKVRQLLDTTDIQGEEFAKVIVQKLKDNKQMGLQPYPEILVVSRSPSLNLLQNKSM
Method in brief: as §1

BMPR1B = BMPR1B (UniProt O00238); details: cell material: Lysate mix
Method in brief: as §1

Hck = Hck (UniProt P08631); details: cell material: Lysate mix
Method in brief: as §1

UniProt Q9BVS4 = molecular target: UniProt Q9BVS4
Method in brief: as §1

UniProt Q8N4C8 = molecular target: UniProt Q8N4C8
Method in brief: as §1

HIPK2 = HIPK2 (UniProt Q9H2X6)
Method in brief: as §1

NLK = molecular target: T2, NLK (UniProt Q9UBE8)
T2 sequence (whole entry): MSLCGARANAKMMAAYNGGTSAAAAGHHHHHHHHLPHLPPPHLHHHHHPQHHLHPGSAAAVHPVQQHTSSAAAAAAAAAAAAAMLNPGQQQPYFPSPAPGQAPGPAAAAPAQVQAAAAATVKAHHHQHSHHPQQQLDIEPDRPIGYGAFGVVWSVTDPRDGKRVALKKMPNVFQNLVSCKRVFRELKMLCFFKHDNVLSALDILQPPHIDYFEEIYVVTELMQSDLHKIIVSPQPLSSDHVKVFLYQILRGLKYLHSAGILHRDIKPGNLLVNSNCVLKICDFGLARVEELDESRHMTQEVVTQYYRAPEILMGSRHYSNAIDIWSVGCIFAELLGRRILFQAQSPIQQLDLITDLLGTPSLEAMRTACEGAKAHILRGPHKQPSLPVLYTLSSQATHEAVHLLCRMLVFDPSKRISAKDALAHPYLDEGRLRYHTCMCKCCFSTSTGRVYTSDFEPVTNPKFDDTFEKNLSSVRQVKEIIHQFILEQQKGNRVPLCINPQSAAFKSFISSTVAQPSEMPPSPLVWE
Method in brief: as §1

PRKAA2 = PRKAA2 (UniProt P54646); details: cell material: Lysate mix
Method in brief: as §1

UniProt P21127 = molecular target: UniProt P21127
Method in brief: as §1

PIM3 = PIM3 (UniProt Q86V86)
Method in brief: as §1

UniProt P35916 = details: cell material: Lysate mix
Method in brief: as §1

EPHA5 = EPHA5 (UniProt P54756); details: cell material: Lysate mix
Method in brief: as §1

UniProt O96017 = molecular target: UniProt O96017
Method in brief: as §1

ROCK2 = ROCK2 (UniProt O75116)
Method in brief: as §1

LCK = LCK (UniProt P06239)
Method in brief: as §1

UniProt O75460 = molecular target: UniProt O75460
Method in brief: as §1

SMILES: C#CCNC(=O)c1cc(Nc2cc(C3CC3)[nH]n2)nc(N2CCN(Cc3ccc(S(=O)(=O)F)cc3)CC2)n1
pIC50 (TNK1): 7.34 | pIC50 (MAP4K4; cell material: Jurkat cells): 5.9 | pIC50 (MAP4K4; cell material: Jurkat lysate): < 4.52 | pIC50 (CDK8; cell material: Jurkat cells): < 4.52 | pIC50 (CDK8; cell material: Jurkat lysate): < 4.52 | pIC50 (CDK8; cell material: Lysate mix): < 4.52 | pIC50 (TESK1; cell material: Jurkat lysate): < 4.52 | pIC50 (TESK1; cell material: Lysate mix): < 4.52 | pIC50 (BRAF; cell material: Jurkat cells): 5.36 | pIC50 (BRAF; cell material: Jurkat lysate): < 4.52 | pIC50 (BRAF; cell material: Lysate mix): < 4.52 | pIC50 (CAMK2B): < 4.52 | pIC50 (UniProt P09619): < 4.52 | pIC50 (UniProt Q5TCX8; cell material: Jurkat cells): 5.78 | pIC50 (UniProt Q5TCX8; cell material: Lysate mix): 4.8 | pIC50 (DAPK3): < 4.52 | pIC50 (NEK6): < 4.52 | pIC50 (RIPK2): < 4.52 | pIC50 (BMPR1B): 4.78 | pIC50 (Hck): 5.86 | pIC50 (UniProt Q9BVS4; cell material: Jurkat cells): 5.12 | pIC50 (UniProt Q9BVS4; cell material: Jurkat lysate): < 4.52 | pIC50 (UniProt Q9BVS4; cell material: Lysate mix): < 4.52 | pIC50 (UniProt Q8N4C8; cell material: Jurkat cells): 5.72 | pIC50 (UniProt Q8N4C8; cell material: Jurkat lysate): < 4.52 | pIC50 (UniProt Q8N4C8; cell material: Lysate mix): < 4.52 | pIC50 (HIPK2; cell material: Jurkat cells): 6.12 | pIC50 (HIPK2; cell material: Jurkat lysate): 5.54 | pIC50 (HIPK2; cell material: Lysate mix): 5.92 | pIC50 (NLK; cell material: Jurkat lysate): < 4.52 | pIC50 (NLK; cell material: Lysate mix): < 4.52 | pIC50 (PRKAA2): 7.31 | pIC50 (UniProt P21127; cell material: Jurkat cells): < 4.52 | pIC50 (UniProt P21127; cell material: Jurkat lysate): < 4.52 | pIC50 (UniProt P21127; cell material: Lysate mix): < 4.52 | pIC50 (PIM3; cell material: Jurkat lysate): < 4.52 | pIC50 (PIM3; cell material: Lysate mix): < 4.52 | pIC50 (UniProt P35916): < 4.52 | pIC50 (EPHA5): < 4.52 | pIC50 (UniProt O96017; cell material: Jurkat cells): 5.76 | pIC50 (UniProt O96017; cell material: Jurkat lysate): 4.88 | pIC50 (UniProt O96017; cell material: Lysate mix): 4.92 | pIC50 (ROCK2; cell material: Jurkat cells): 4.76 | pIC50 (ROCK2; cell material: Lysate mix): < 4.52 | pIC50 (LCK; cell material: Jurkat cells): 6.47 | pIC50 (LCK; cell material: Jurkat lysate): 5.64 | pIC50 (LCK; cell material: Lysate mix): 6.07 | pIC50 (UniProt O75460; cell material: Jurkat cells): < 4.52 | pIC50 (UniProt O75460; cell material: Jurkat lysate): < 4.52 | pIC50 (UniProt O75460; cell material: Lysate mix): < 4.52

pIC50 (TNK1): 7.07 | pIC50 (MAP4K4; cell material: Lysate mix): < 4.52 | pIC50 (CDK8; cell material: Lysate mix): < 4.52 | pIC50 (TESK1; cell material: Lysate mix): < 4.52 | pIC50 (BRAF; cell material: Lysate mix): < 4.52 | pIC50 (CAMK2B): < 4.52 | pIC50 (UniProt P09619): < 4.52 | pIC50 (UniProt Q5TCX8; cell material: Lysate mix): < 4.52 | pIC50 (DAPK3): 5.14 | pIC50 (NEK6): < 4.52 | pIC50 (RIPK2): < 4.52 | pIC50 (BMPR1B): < 4.52 | pIC50 (Hck): 5.62 | pIC50 (UniProt Q9BVS4; cell material: Lysate mix): < 4.52 | pIC50 (UniProt Q8N4C8; cell material: Lysate mix): < 4.52 | pIC50 (HIPK2; cell material: Lysate mix): 4.77 | pIC50 (NLK; cell material: Lysate mix): < 4.52 | pIC50 (PRKAA2): 7.35 | pIC50 (UniProt P21127; cell material: Lysate mix): < 4.52 | pIC50 (PIM3; cell material: Lysate mix): < 4.52 | pIC50 (UniProt P35916): < 4.52 | pIC50 (EPHA5): < 4.52 | pIC50 (UniProt O96017; cell material: Lysate mix): 4.92 | pIC50 (ROCK2; cell material: Lysate mix): < 4.52 | pIC50 (LCK; cell material: Lysate mix): 5.72 | pIC50 (UniProt O75460; cell material: Lysate mix): < 4.52
SMILES: CCNC(=O)c1cc(Nc2cc(C)[nH]n2)nc(N2CCN(Cc3ccc(S(=O)(=O)F)cc3)CC2)n1

pIC50 (TNK1): 7.21 | pIC50 (MAP4K4; cell material: Lysate mix): < 4.52 | pIC50 (CDK8; cell material: Lysate mix): < 4.52 | pIC50 (TESK1; cell material: Lysate mix): < 4.52 | pIC50 (BRAF; cell material: Lysate mix): < 4.52 | pIC50 (CAMK2B): < 4.52 | pIC50 (UniProt P09619): < 4.52 | pIC50 (UniProt Q5TCX8; cell material: Lysate mix): 4.65 | pIC50 (DAPK3): 4.83 | pIC50 (NEK6): < 4.52 | pIC50 (RIPK2): < 4.52 | pIC50 (BMPR1B): 5.08 | pIC50 (Hck): 5.8 | pIC50 (UniProt Q9BVS4; cell material: Lysate mix): < 4.52 | pIC50 (UniProt Q8N4C8; cell material: Lysate mix): < 4.52 | pIC50 (HIPK2; cell material: Lysate mix): 5.72 | pIC50 (NLK; cell material: Lysate mix): < 4.52 | pIC50 (PRKAA2): 7.04 | pIC50 (UniProt P21127; cell material: Lysate mix): < 4.52 | pIC50 (PIM3; cell material: Lysate mix): < 4.52 | pIC50 (UniProt P35916): < 4.52 | pIC50 (EPHA5): < 4.52 | pIC50 (UniProt O96017; cell material: Lysate mix): 4.75 | pIC50 (ROCK2; cell material: Lysate mix): < 4.52 | pIC50 (LCK; cell material: Lysate mix): 5.89 | pIC50 (UniProt O75460; cell material: Lysate mix): < 4.52
SMILES: CCNC(=O)c1cc(Nc2cc(C3CC3)[nH]n2)nc(N2CCN(Cc3ccc(S(=O)(=O)F)cc3)CC2)n1
